Measured values: ChEMBL document CHEMBL1123607, “Synthesis of potential anticancer agents: imidazo[4,5-c]pyridines and imidazo[4,5-b]pyridines” (J Med Chem, 1987)

Assays:
[1] = Cytotoxicity activity against the KB cell culture at less than 10 uM; type: functional; details: Homo sapiens, read-out: ED50 (the source's name)
L1210 [2] = assay: Inhibition against the proliferation of L1210 leukemia; type: functional, cell-based; details: Mus musculus
L1210 [3] = assay: Mitotic index (MI); type: functional, Mus musculus
L1210 [4] = assay: Percent increase in life span at 40 mg/kg on a single dose schedule against L1210 leukemia; type: functional; details: Mus musculus

SMILES	EC50 [1] [µM]	IC50 (L1210 [2]) [µM]	MI (L1210 [3]) [µM]	ILS at 40 mg/kg (L1210 [4]) [%]
CCOC(=O)Nc1cc(Nc2ccccc2)c2[nH]cnc2n1	9.5	–	–	–
CCOC(=O)Nc1cc(NC(c2ccccc2)c2ccccc2)c2[nH]cnc2n1	–	0.37	1.15	59
